{
  "source": "paper PMC5964640",
  "about": "“Pharmacological effects of N-[2-[[2-[2-[(2,6-dichlorophenyl)amino]phenyl]acetyl]oxy]ethyl]hyaluronamide (diclofenac Etalhyaluronate, SI-613), a novel sodium hyaluronate derivative chemically linked with diclofenac” (BMC Musculoskeletal Disorders, 2018)",
  "key": {"PGE2 content in the SF": {"tested_on": "PGE2 content in the SF", "assay": "PGE2 content in the SF of rabbits with antigen-induced arthritis", "format": "in vivo, rabbit", "settings": "for production of PGE2 in the SF, group comparison: 72 h after administration", "procedure": "To prepare the anesthetic, saline (2 mL), midazolam (1 mL, 5 mg/mL, Astellas Pharma Inc., Tokyo, Japan), xylazine (2 mL, 0.02 g/mL, Bayer Medical Ltd., Tokyo, Japan), and butorphanol tartrate (1 mL, 5 mg/mL, Meiji Seika Kaisha, Ltd., Tokyo, Japan) were mixed. The anesthetic was administered intravenously to each animal at a volume of 1 mL/body. OVA (Sigma-Aldrich Co., St. Louis, MO) emulsion with Freund's complete adjuvant (FCA; CAPPEL Laboratories Inc., Cochranville, PA) was injected intradermally into the backs of 80 male rabbits at a dose of 5 mg/animal twice at an interval of 13 or 14 days. Twenty-three days after the first immunization, 1% OVA solution was injected in the joint cavities of the left hindlimb at a volume of 500 μL/joint to induce arthritis. […] Animals were sacrificed by exsanguination under 2% isoflurane anesthesia 3 and 72 h after administration, respectively. The SF was collected by washing the joint cavity twice with saline (Otsuka Pharmaceutical Factory, Inc.) containing 20 μg/mL of indomethacin ([…] K. K.) at 3 or 72 h after the administration of the test materials. The PGE2 content in the SF was determined as a mechanism biomarker for the anti-inflammatory effect using a High Sensitivity Prostaglandin E2 Enzyme Immunoassay Kit (Assay Designs Inc.)."}, "[1]": {"assay": "Distribution of DF in knee tissues after a single administration, short-term study (LC-MS/MS)", "format": "in vivo, rabbit", "settings": "individual animals, free DF"}, "[2]": {"assay": "Plasma DF concentrations of rabbits with antigen-induced arthritis", "format": "in vivo, rabbit"}, "[3]": {"tested_on": "silver nitrate-induced arthritic rats", "assay": "Rat model of silver nitrate-induced arthritic pain (pain score, weight-bearing rate)", "format": "in vivo", "excerpt": "The silver nitrate-induced arthritic pain model is known as a subacute arthritis model, in which the inflammatory response and pain last for at least 3 days following injury. This model involves the activation of prostaglandin pathways and has been used for evaluating the analgesic effects of various NSAIDs or kappa-opioid receptor agonist. Overall, 136 male Sprague-Dawley (SD) rats were obtained from Charles River Laboratories Japan Inc. General anesthesia was maintained by the inhalation of isoflurane (Forane; Dainippon Sumitomo Pharma Co., Ltd., Osaka, Japan). Silver nitrate solution (1%, Wako Pure Chemical Industries, Ltd., Osaka, Japan) at a volume of 50 μL/joint was injected in the knee joint cavity of the left hindlimbs of rats. Animals with no abnormalities were allocated to four groups in each study based on the weight-bearing rate of the inflamed joints and pain score at the time of allocation, by using stratified continuous randomization. Test substances were administered on the day following the arthritis induction. In the first study, SI-613 (contents of DF; 11.8% (w/w), manufactured by Seikagaku Corporation, Tokyo, Japan) at doses of 0.05, 0.15, and 0.5 mg/50 μL/joint (5.9, 17.7, and 59 μg/joint in DF equivalent) or phosphate-buffered saline (PBS) was once injected into the joint cavities of the left hindlimbs for the dose-response assessments.\nIn the second study, SI-613 (0.5 mg/joint, 59 μg/joint in DF equivalent), HA (0.5 mg/joint, Seikagaku Corporation), a mixture of DF-Na (59 μg/joint, Wako Pure Chemical Industries, Ltd.) and HA (0.5 mg/joint) (DF-Na + HA), or PBS was administered in the same manner for the proof of concept. The doses of DF-Na and HA were set at those of respective components in SI-613 formulation. The DF-Na solution (1 mg/mL) was prepared using the Water for Injection (Otsuka Pharmaceutical Factory, Inc., Tokyo, Japan) and administered orally at a dose of 2 mg/kg (approximately 0.3 mg/body) once daily for 3 days. The oral DF-Na dose, 2 mg/kg, was set in accordance with the dose for adult humans with a body weight of 50 kg, on the assumption that the maximum daily dose in clinical practice administered to patients with OA or rheumatoid arthritis would be 100 mg. It has been reported that DF-Na exerted anti-inflammatory effects in rats when administered at this dose.\nPain was assessed under blinded conditions by scoring pain-related behaviors based on the following criteria and measuring the weight-bearing rates of hindlimbs with a load-measuring device (Tokken Inc., Chiba, Japan) at a same time each day for 3 days after the injection of the test materials.\nThe criteria for assigning pain scores were as follows: 0; normal, 1; mild claudication with lifting the foot, 2; severe claudication with completely closing the toe, 3; walking on three legs. The weight-bearing rate was calculated using the following formula:\nWeight-bearing rate (%) = Mean weight-bearing load on inflamed leg (g) / Body weight (g) × 100."}, "[4]": {"tested_on": "PGE2 content in the synovial fluid", "assay": "PGE2 content in the synovial fluid of silver nitrate-induced arthritic rats", "format": "in vivo, rat", "procedure": "In addition, the prostaglandin E2 (PGE2) content, which plays a critical role in inducing inflammation and pain associated with arthritis, was determined in the synovial fluid (SF). Briefly, SI-613 (0.5 mg/joint) or PBS was administered into the joint cavity of the left hindlimb. After assessing the severity of pain, animals were sacrificed by exsanguination under 2% isoflurane anesthesia 1, 2 and 3 days after administration, respectively. The SF was collected by washing the joint cavity with saline (Otsuka Pharmaceutical Factory, Inc.) containing indomethacin (Indacin, MSD K. K., Tokyo, Japan), which was effective to prevent joint puncturing-induced production of PGE2 (unpublished result). The PGE2 content in the SF was measured with a High Sensitivity PGE2 Correlate-EIA kit (Assay Designs Inc., Ann Arbor, MI)."}, "[5]": {"tested_on": "antigen-induced arthritic rabbits", "assay": "Knee joint swelling of antigen-induced arthritic rabbits (long-lasting anti-inflammatory effect)", "format": "in vivo, rabbit", "settings": "single IA 5 mg/joint", "procedure": "The duration and efficacy of the anti-inflammatory effect of SI-613 was studied in OVA-induced arthritis rabbits. Two days after the arthritis induction, the knee joint diameter in all 60 rabbits was measured with a digital thickness gauge (Teclock Corp., Nagano, Japan). The joint swelling was expressed as the difference in millimeters between the inflamed (left) and non-inflamed (right) knee joint diameters. The same researcher evaluated the knee joint swelling on all groups on all days. Fifteen animals (knee joint swelling was not more than 7.30 mm) and 5 animals (knee joint swelling was not less than 10.40 mm) were excluded. Forty animals were divided into two groups of 20 animals each by the stratified random sampling method based on the knee joint swelling and body weight of the day, and were administered with 5 mg/joint SI-613 or PBS at a volume of 500 μL/joint into the joint cavities. The knee joint swelling was evaluated the day before (day 0), and on days 1, 3, 7, 14, 21, 28, 35, and 42 after a single injection of the test materials. The knee joint swelling was expressed as the difference in the width of the right and left knee joint."}, "[6]": {"assay": "DF in knee tissues after a single IA administration of SI-613, long-term study (LC-MS/MS)", "format": "in vivo, rabbit", "settings": "single IA 5 mg/joint", "procedure": "Arthritis was induced in the 24 rabbits as described above. Two days after the induction of arthritis in the rabbits, 5 mg/joint SI-613 or PBS was administered at a volume of 500 μL/joint into the knee joint cavity. Concentrations of DF in the synovium and synovial lavage fluid were measured by LC-MS/MS on days 1, 3, 7, 14, 21, 28, 35, and 42 after a single IA administration."}, "[7]": {"settings": "sampling point 72 h, oral 2 mg/kg or single IA"}, "[8]": {"settings": "second study, single IA 0.5 mg/joint, compared with PBS, HA, DF-Na + HA or repeated oral DF-Na"}, "[9]": {"settings": "sampling point 72 h, oral 2 mg/kg or single IA, 2 mg/kg"}},
  "note": "“And” between values parts separate entries of the source, which are not always exact repeats. Identical values can stand only once.",
  "data": [
    {"compound": "O=C(O)Cc1ccccc1Nc1c(Cl)cccc1Cl", "note": "[DF-Na, diclofenac sodium]", "values": [
      {"measurement": "mean PGE2 content in the SF", "setting": "PGE2 content in the SF; 3 h after administration, DF-Na oral 2 mg/kg", "result": 3767, "unit": "pg/joint"},
      {"measurement": "production of PGE2 in the SF compared with the control group", "setting": "PGE2 content in the SF; 3 h after administration, oral 2 mg/kg", "result": "significantly suppressed"},
      {"measurement": "production of PGE2 in the SF, group comparison", "setting": "PGE2 content in the SF", "result": "No significant differences"},
      {"measurement": "Concentration of DF Synovial lavage fluid", "setting": "[1]; sampling point 3 h", "result": "124.6 ng/mL fluid and 58.23 ng/mL fluid and 45.66 ng/mL fluid"},
      {"measurement": "Concentration of DF Synovium", "setting": "[1]; sampling point 3 h", "result": "155.8 ng/g tissue and 52.88 ng/g tissue and 75.83 ng/g tissue"},
      {"measurement": "Concentration of DF Synovial lavage fluid", "setting": "[1]; [7]", "result": "BLQ2 (< 1 ng of DF per mL of synovial lavage fluid)"},
      {"measurement": "Concentration of DF Synovium", "setting": "[1]; [7]", "result": "BLQ1 (below limit of quantification, < 5 ng/g)"},
      {"measurement": "AUC(0-inf)", "setting": "[2]; rabbit, plasma, po, 2 mg/kg, mean ± SD, read-out: AUC0-∞ of DF in plasma", "result": 4130, "unit": "ng·h/mL"},
      {"measurement": "half-life", "setting": "[2]; rabbit, plasma, po, 2 mg/kg, mean ± SD, read-out: t1/2 of DF in plasma (converted)", "result": 12.8, "unit": "h"},
      {"measurement": "Tmax", "setting": "[2]; rabbit, plasma, po, 2 mg/kg, same groups, mean ± SD", "result": "2.4 ± 3.2", "unit": "h"},
      {"measurement": "AUC(0-t)", "setting": "[2]; rabbit, plasma, po, 2 mg/kg, t = latest time point at which DF was quantifiable, mean ± SD, read-out: AUC0-t of DF in plasma", "result": "4690 ± 1900", "unit": "ng·h/mL"},
      {"measurement": "Cmax", "setting": "[2]; rabbit, plasma, DF-Na oral 2 mg/kg, mixture DF-Na 0.59 mg + HA 5 mg/joint IA, SI-613 5 mg/joint IA, mean ± SD", "result": "621 ± 372", "unit": "ng/mL"}
    ]},
    {"compound": "N-[2-[[2-[2-[(2,6-dichlorophenyl)amino]phenyl]acetyl]oxy]ethyl]hyaluronamide [SI-613]", "values": [
      {"measurement": "analgesic effect (pain score)", "setting": "[3]; PGE2 study, IA 0.5 mg/joint, days 1, 2 and 3", "result": "confirmed each day"},
      {"measurement": "pain behavioral score", "setting": "[3]; first study, single IA 0.05, 0.15 and 0.5 mg/joint, vs control (PBS), mean of 3 days", "result": "improved the pain behavioral scores significantly"},
      {"measurement": "weight-bearing rate", "setting": "[3]; first study, single IA 0.15 and 0.5 mg/joint, vs control, mean of 3 days", "result": "significantly increased the weight-bearing rates"},
      {"measurement": "pain behavioral score", "setting": "[3]; [8]", "result": "significantly improved the pain behavioral score"},
      {"measurement": "weight-bearing rate", "setting": "[3]; [8]", "result": "increased the weight-bearing rate"},
      {"measurement": "PGE2 content in the SF vs control", "setting": "[4]; IA 0.5 mg/joint, days 1, 2 and 3", "result": "lower PGE2 content than the control group"},
      {"measurement": "PGE2-inhibitory effect, statistical significance vs control", "setting": "[4]; rat model, 72 h after administration", "result": "no statistically significant difference"},
      {"measurement": "production of PGE2 in the SF, group comparison", "setting": "PGE2 content in the SF", "result": "significantly suppressed"},
      {"measurement": "knee joint swelling compared with the control", "setting": "[5]; day 1 until day 28", "result": "significantly decreased"},
      {"measurement": "knee joint swelling compared with the control", "setting": "[5]; day 35 and day 42", "result": "no significant difference"},
      {"measurement": "Concentration of DF Synovial lavage fluid", "setting": "[1]; [9]", "result": "60.64 ng/mL fluid and 38.82 ng/mL fluid and 1540 ng/mL fluid"},
      {"measurement": "Concentration of DF Synovium", "setting": "[1]; [9]", "result": "15.23 ng/g tissue and 45.47 ng/g tissue and 351.1 ng/g tissue"},
      {"measurement": "plasma AUC0-t of DF, times smaller than DF-Na + HA group (IA)", "setting": "[2]; SI-613 IA vs DF-Na + HA IA", "result": 16, "unit": "times"},
      {"measurement": "plasma Cmax of DF, times lower than DF-Na + HA group (IA)", "setting": "[2]; SI-613 IA vs DF-Na + HA IA", "result": 94, "unit": "times"},
      {"measurement": "plasma AUC0-t of DF, times smaller than DF-Na group (oral)", "setting": "[2]; SI-613 IA vs DF-Na oral", "result": 187, "unit": "times"},
      {"measurement": "plasma Cmax of DF, times lower than DF-Na group (oral)", "setting": "[2]; SI-613 IA vs DF-Na oral", "result": 462, "unit": "times"},
      {"measurement": "mean amount of DF in the joint cavity lavage fluid", "setting": "[6]; day 21", "result": 5.940, "unit": "ng/joint"},
      {"measurement": "DF in the joint cavity lavage fluid", "setting": "[6]; day 28", "result": "< 1 ng of DF per mL of synovial lavage fluid"},
      {"measurement": "mean DF concentration in the synovium", "setting": "[6]; day 28", "result": 9.754, "unit": "ng/g"}
    ]}
  ]
}
